According to patent US6642217B2, “Triterpenes having human antifungal and antiyeast activity” (Naturtek, LLC, priority 2000, dated 2003):

Assays:
[1] = test system: Microsporum canis; test: Agar dilution method, growth on Sabouraud dextrose agar slants; format: cell-based; set-up: key: +++: Maximum Fungal Growth; ++: Moderate Fungal Growth; +: Minimum Fungal Growth; +/−: Very little Fungal Growth; −: No Fungal Growth; conditions: 12th day after inoculation
Procedure: (§1) Agar dilution method. Sabouraud Dextrose Agar (Difco Laboratories, Michigan) was prepared according to the manufacturer's instructions. Five ml was dispensed in a 100×25 mm tube and autoclaved. To each tube containing 5.0 ml of liquid agar at 45° C., 0.5, 0.25, 0.12, or 0.063 ml of a DMSO solution of the compound was added to give the final indicated concentrations in Table 2. The agar was then solidified in slants. Fungal cultures were inoculated. The slants were incubated at 25-28° C. for 10-12 days, and the growth of the fungus was recorded every second day.

[2] = test system: Microsporum gypseum; test: as above; format: cell-based; set-up: key: +++: Maximum Fungal Growth; ++: Moderate Fungal Growth; +: Minimum Fungal Growth; +/−: Very little Fungal Growth; −: No Fungal Growth; conditions: 12th day after inoculation
Procedure: as §1

[3] = test system: Pityrosporum ovale; test: as above; format: cell-based; set-up: key: +++: Maximum Fungal Growth; ++: Moderate Fungal Growth; +: Minimum Fungal Growth; +/−: Very little Fungal Growth; −: No Fungal Growth; conditions: 12th day after inoculation
Procedure: as §1

[4] = test system: Trichophyton rubrum; test: as above; format: cell-based; set-up: key: +++: Maximum Fungal Growth; ++: Moderate Fungal Growth; +: Minimum Fungal Growth; +/−: Very little Fungal Growth; −: No Fungal Growth; conditions: 12th day after inoculation
Procedure: as §1

[5] = test system: Microsporum audouinni; test: as above; format: cell-based, Microsporum audouinii; set-up: key: +++: Maximum Fungal Growth; ++: Moderate Fungal Growth; +: Minimum Fungal Growth; +/−: Very little Fungal Growth; −: No Fungal Growth; conditions: 12th day after inoculation
Procedure: as §1

[6] = test system: Trichophyton tonsuran; test: as above; format: cell-based, Trichophyton tonsurans; set-up: key: +++: Maximum Fungal Growth; ++: Moderate Fungal Growth; +: Minimum Fungal Growth; +/−: Very little Fungal Growth; −: No Fungal Growth; conditions: 12th day after inoculation
Procedure: as §1

[7] = test system: Trichophyton mentagrophyte; test: as above; format: cell-based, Trichophyton mentagrophytes; set-up: key to Fungal growth: +++: Maximum Fungal Growth; ++: Moderate Fungal Growth; +: Minimum Fungal Growth; +/−: Very little Fungal Growth; −: No Fungal Growth; conditions: 12th day after inoculation
Procedure: as §1

[8] = test system: Epidermophyton floccosum; test: as above; format: cell-based; set-up: key to Fungal growth: +++: Maximum Fungal Growth; ++: Moderate Fungal Growth; +: Minimum Fungal Growth; +/−: Very little Fungal Growth; −: No Fungal Growth; conditions: 12th day after inoculation
Procedure: as §1

[9] = test system: Microsporum audouinni; test: Direct addition method, solid compound in Sabouraud dextrose agar; format: cell-based, Microsporum audouinii; set-up: key to Fungal growth: +++: Maximum Fungal Growth; ++: Moderate Fungal Growth; +: Minimum Fungal Growth; +/−: Very little Fungal Growth; −: No Fungal Growth; conditions: 4 mg/mL of agar; 12th day after inoculation
Procedure: (§2) Direct addition method. Sabouraud dextrose agar was prepared according to the manufacturer's instructions and 5.0 ml was dispensed in each 100×25 mm tube. The tubes were autoclaved. To each tube containing 5.0 ml of liquid agar at 45° C., 20 mg of solid test compound was added, to give a final concentration of 4 mg/ml. The agar was solidified in slants. The fungal cultures were then innoculated. The slants were incubated at 25-28 ° C. for 10-12 days, and the growth of the fungus was recorded every second day. The results in Table 2 indicate growth at the 12th day of inoculation.

[10] = test system: Pityrosporum ovale; test: Direct addition into the Pityrosporum agar; format: cell-based; set-up: key to Pityrosporum ovale growth: +++: Maximum Growth; ++: Moderate Growth; +: Minimum Growth; +/−: Very Little Growth; −: No Growth; conditions: 4 mg/ml in the agar; 18 hours after inoculation
Procedure: as §2, with “The slants were incubated at 25-28 ° C. for 10-12 days, and the growth of the fungus was recorded every second day. The results in Table 2 indicate growth at the 12th day of inoculation.” left out

[11] = test system: Microsporum audouinii; test: Summary of anti-fungal assays (direct addition, agar dilution, liquid culture); format: cell-based; conditions: stated in words (Tables 1a/1b, text to Table 5)
Procedure: (§3) This example summarizes the results of various other assays of the anti-fungal activity of betulin derivatives. Table 5 summarizes results using different assay methods—direct addition, agar dilution, and direct addition to liquid culture, as disclosed in the previous three Examples. In some cases, only one type of assay was done with a compound. In other cases, the compound was tested by multiple assays.

[12] = test system: Trichophyton tonsurans; test: as above; format: cell-based; conditions: stated in words (Tables 1a/1b, text to Table 5)
Procedure: as §3

[13] = test system: Epidermophyton floccosum; test: Direct addition method, solid compound in Sabouraud dextrose agar; format: cell-based; set-up: key: +++: Maximum Fungal Growth; ++: Moderate Fungal Growth; +: Minimum Fungal Growth; +/−: Very little Fungal Growth; −: No Fungal Growth; conditions: 4 mg/mL of agar; 12th day after inoculation
Procedure: as §2

[14] = test system: Microsporum canis; test: as above; format: cell-based; set-up: key: +++: Maximum Fungal Growth; ++: Moderate Fungal Growth; +: Minimum Fungal Growth; +/−: Very little Fungal Growth; −: No Fungal Growth; conditions: 4 mg/mL of agar; 12th day after inoculation
Procedure: as §2

[15] = test system: Pityrosporum ovale; test: as above; format: cell-based; set-up: key: +++: Maximum Fungal Growth; ++: Moderate Fungal Growth; +: Minimum Fungal Growth; +/−: Very little Fungal Growth; −: No Fungal Growth; conditions: 4 mg/mL of agar; 12th day after inoculation
Procedure: as §2

[16] = test system: Trichophyton rubrum; test: as above; format: cell-based; set-up: key: +++: Maximum Fungal Growth; ++: Moderate Fungal Growth; +: Minimum Fungal Growth; +/−: Very little Fungal Growth; −: No Fungal Growth; conditions: 4 mg/mL of agar; 12th day after inoculation
Procedure: as §2

Compound: CC1(C)CCC23CCC4(C)C(CCC5C6(C)CCC(OC(=O)CCCC(=O)O)C(C)(C)C6CCC54C)C2C1OC3 (stereo not shown) [Allobetulin-3-glutarate]
- Fungal growth ([1]; 12.5 μg/ml): +
- Fungal growth ([1]; 25 μg/ml): +/−
- Fungal growth ([1]; 50 μg/ml): −
- Fungal growth ([1]; 100 μg/ml): −
- Fungal growth ([2]; 12.5 μg/ml): +++
- Fungal growth ([2]; 25 μg/ml): ++
- Fungal growth ([2]; 50 μg/ml): ++
- Fungal growth ([2]; 100 μg/ml): −
- Fungal growth ([3]; 12.5 μg/ml): +++
- Fungal growth ([3]; 25 μg/ml): +++
- Fungal growth ([3]; 50 μg/ml): +|
- Fungal growth ([3]; 100 μg/ml): −
- Fungal growth ([4]; 12.5 μg/ml): ++
- Fungal growth ([4]; 25 μg/ml): ++
- Fungal growth ([4]; 50 μg/ml): +
- Fungal growth ([4]; 100 μg/ml): −
- Fungal growth ([5]; 12.5 μg/ml): +
- Fungal growth ([5]; 25 μg/ml): +/−
- Fungal growth ([5]; 50 μg/ml): −
- Fungal growth ([5]; 100 μg/ml): −
- Fungal growth ([6]; 12.5 μg/ml): +
- Fungal growth ([6]; 25 μg/ml): +/−
- Fungal growth ([6]; 50 μg/ml): −
- Fungal growth ([6]; 100 μg/ml): −
- Fungal growth ([7]; 12.5 μg/ml): ++
- Fungal growth ([7]; 25 μg/ml): +
- Fungal growth ([7]; 50 μg/ml): +
- Fungal growth ([7]; 100 μg/ml): −
- Fungal growth ([8]; 12.5 μg/ml): ++
- Fungal growth ([8]; 25 μg/ml): +
- Fungal growth ([8]; 50 μg/ml): +
- Fungal growth ([8]; 100 μg/ml): −
- Fungal growth [9]: +
- Pityrosporum ovale growth [10]: +
- Active against Microsporum audouinii [11]: Microsporum audouinii
- Active against Trichophyton tonsurans [12]: Trichophyton tonsurans
- Fungal growth [13]: −
- Fungal growth [14]: +
- Fungal growth [15]: −
- Fungal growth [16]: +

Compound: CC1(C)CCC23CC[C@@]4(C)C(CCC5[C@@]6(C)CCC(OC(=O)CCC(=O)O)C(C)(C)C6CC[C@]54C)C2C1OC3 (stereo partly shown) [Allobetulin-3-succinate]
- Fungal growth ([1]; 62.5 μg/ml): ++
- Fungal growth ([1]; 125 μg/ml): ++
- Fungal growth ([1]; 250 μg/ml): −
- Fungal growth ([1]; 500 μg/ml): −
- Fungal growth ([2]; 62.5 μg/ml): +++
- Fungal growth ([2]; 125 μg/ml): ++
- Fungal growth ([2]; 250 μg/ml): +
- Fungal growth ([2]; 500 μg/ml): −
- Fungal growth ([3]; 62.5 μg/ml): +++
- Fungal growth ([3]; 125 μg/ml): +++
- Fungal growth ([3]; 250 μg/ml): +++
- Fungal growth ([3]; 500 μg/ml): +
- Fungal growth ([4]; 62.5 μg/ml): ++
- Fungal growth ([4]; 125 μg/ml): ++
- Fungal growth ([4]; 250 μg/ml): −
- Fungal growth ([4]; 500 μg/ml): −
- Fungal growth ([5]; 62.5 μg/ml): ++
- Fungal growth ([5]; 125 μg/ml): ++
- Fungal growth ([5]; 250 μg/ml): −
- Fungal growth ([5]; 500 μg/ml): −
- Fungal growth ([6]; 62.5 μg/ml): ++
- Fungal growth ([6]; 125 μg/ml): ++
- Fungal growth ([6]; 250 μg/ml): +
- Fungal growth ([6]; 500 μg/ml): −
- Fungal growth ([7]; 62.5 μg/ml): ++
- Fungal growth ([7]; 125 μg/ml): +
- Fungal growth ([7]; 250 μg/ml): +/−
- Fungal growth ([7]; 500 μg/ml): −
- Fungal growth ([8]; 62.5 μg/ml): ++
- Fungal growth ([8]; 125 μg/ml): ++
- Fungal growth ([8]; 250 μg/ml): +
- Fungal growth ([8]; 500 μg/ml): −
- Fungal growth [9]: +
- Pityrosporum ovale growth [10]: +
- Active against Microsporum audouinii [11]: Microsporum audouinii
- Fungal growth [13]: −
- Fungal growth [14]: +
- Fungal growth [15]: −
- Fungal growth [16]: +
